Legend:
[1] = molecular target: Voltage-gated inwardly rectifying potassium channel KCNH2 (Homo sapiens, UniProt Q12809); test: Displacement of [35S]-labeled MK499 from cloned hERG expressed in HEK cells; assay type: cell-based, HEK293
Gerbil, jird [2] = test: Inhibition of GR-73632-induced foot tapping in iv dosed gerbil; assay type: functional; conditions: Meriones, read-out: ID50 (the source's name)
Gerbil, jird [3] = test: Inhibition of GR-73632-induced foot tapping in iv dosed gerbils after 24 hrs; assay type: functional; conditions: Meriones, read-out: ID50 (the source's name)
Substance-P receptor = Substance-P receptor (Homo sapiens, UniProt P25103); test: Displacement of [125I]-labeled substance P from human cloned NK1 receptor expressed in CHO cells; assay type: cell-based
Chain of Substance-P receptor (P25103 whole entry): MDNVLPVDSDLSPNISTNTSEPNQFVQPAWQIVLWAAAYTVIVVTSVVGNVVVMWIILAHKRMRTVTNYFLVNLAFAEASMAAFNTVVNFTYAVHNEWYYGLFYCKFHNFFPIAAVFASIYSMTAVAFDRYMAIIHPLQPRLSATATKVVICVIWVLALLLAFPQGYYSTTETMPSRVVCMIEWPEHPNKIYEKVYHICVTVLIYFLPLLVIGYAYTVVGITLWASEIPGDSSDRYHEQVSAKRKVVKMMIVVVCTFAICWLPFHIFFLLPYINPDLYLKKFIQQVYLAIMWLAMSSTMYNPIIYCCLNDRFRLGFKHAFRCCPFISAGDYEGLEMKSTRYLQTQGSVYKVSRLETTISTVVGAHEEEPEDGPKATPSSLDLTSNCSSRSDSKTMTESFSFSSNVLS

Gerbil, jird [4] = test: Inhibition of GR-73632 induced foot tapping in gerbils at 3 mg/kg, iv after 24 hrs; assay type: functional; conditions: Meriones
Gerbil, jird [5] = test: Inhibition of GR-73632-induced foot tapping in gerbils at 3 mg/kg, iv; assay type: functional; conditions: Meriones

Chain of Voltage-gated inwardly rectifying potassium channel KCNH2 (Q12809 whole entry): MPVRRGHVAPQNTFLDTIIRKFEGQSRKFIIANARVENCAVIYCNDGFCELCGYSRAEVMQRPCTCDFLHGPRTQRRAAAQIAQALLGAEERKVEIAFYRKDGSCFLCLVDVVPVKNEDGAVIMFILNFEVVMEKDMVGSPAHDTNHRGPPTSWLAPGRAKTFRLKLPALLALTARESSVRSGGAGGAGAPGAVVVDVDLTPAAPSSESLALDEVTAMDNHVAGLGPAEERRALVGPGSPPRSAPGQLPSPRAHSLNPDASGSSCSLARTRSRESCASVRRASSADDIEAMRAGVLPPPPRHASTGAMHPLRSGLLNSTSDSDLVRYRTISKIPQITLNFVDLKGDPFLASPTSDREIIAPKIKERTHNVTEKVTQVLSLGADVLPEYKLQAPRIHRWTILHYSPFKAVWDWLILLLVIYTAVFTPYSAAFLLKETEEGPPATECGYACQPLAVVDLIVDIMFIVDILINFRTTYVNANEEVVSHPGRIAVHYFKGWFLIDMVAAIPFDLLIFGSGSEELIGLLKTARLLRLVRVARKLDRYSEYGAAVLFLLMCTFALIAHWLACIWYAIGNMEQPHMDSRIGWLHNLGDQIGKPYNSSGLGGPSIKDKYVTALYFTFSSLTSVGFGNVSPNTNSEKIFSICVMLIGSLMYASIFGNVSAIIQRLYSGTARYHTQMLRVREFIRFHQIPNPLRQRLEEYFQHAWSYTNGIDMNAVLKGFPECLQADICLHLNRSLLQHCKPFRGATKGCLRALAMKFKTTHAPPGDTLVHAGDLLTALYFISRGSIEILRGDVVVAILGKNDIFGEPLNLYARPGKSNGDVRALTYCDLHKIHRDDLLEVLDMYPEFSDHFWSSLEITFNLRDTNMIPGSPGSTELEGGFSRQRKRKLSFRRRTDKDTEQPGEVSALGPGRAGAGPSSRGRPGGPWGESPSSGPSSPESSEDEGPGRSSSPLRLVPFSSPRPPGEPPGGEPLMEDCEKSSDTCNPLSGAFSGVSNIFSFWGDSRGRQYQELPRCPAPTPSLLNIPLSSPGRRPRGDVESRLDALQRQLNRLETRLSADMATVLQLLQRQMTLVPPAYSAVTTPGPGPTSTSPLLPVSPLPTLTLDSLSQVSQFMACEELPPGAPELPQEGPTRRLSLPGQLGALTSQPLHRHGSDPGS

## C[C@@H](OC1CCC2NC1(c1ccccc1)CC2c1nnnn1C)c1cc(C(F)(F)F)cc(C(F)(F)F)c1 (stereo partly specified)
[1]
  Ki: 2800 nM
Gerbil, jird [2]
  ED50: 0.2 mg/kg
Gerbil, jird [3]
  ED50: 0.8 mg/kg
Substance-P receptor
  IC50: 1.2 nM

## C[C@@H](OC1CCC2CCC1(c1ccccc1)N2)c1cc(C(F)(F)F)cc(C(F)(F)F)c1 (stereo partly specified)
Substance-P receptor
  IC50: 4.2 nM

## C[C@@H](OC1CCC2NC1(c1ccccc1)CC2(F)c1nnn(C)n1)c1cc(C(F)(F)F)cc(C(F)(F)F)c1 (stereo partly specified)
[1]
  Ki: > 5000 nM
Gerbil, jird [4]
  inhibition in vivo at 3 mg/kg: 23%
Substance-P receptor
  IC50: 0.4 nM

## Cn1nnc(C2(F)CC3(c4ccccc4)NC2CCC3OCc2cc(C(F)(F)F)cc(C(F)(F)F)c2)n1 (stereo unspecified)
[1]
  Ki: > 10000 nM
Gerbil, jird [4]
  inhibition in vivo at 3 mg/kg: 11%
Substance-P receptor
  IC50: 1.5 nM

## O=S(=O)(c1ccccc1)C1CC2(c3ccccc3)NC1CCC2OCc1cc(C(F)(F)F)cc(C(F)(F)F)c1 (stereo unspecified)
[1]
  Ki: 1300 nM
Substance-P receptor
  IC50: 2.8 nM

## FC(F)(F)c1cc(COC2CCC3CCC2(c2ccccc2)N3)cc(C(F)(F)F)c1 (stereo unspecified)
[1]
  Ki: 300 nM
Substance-P receptor
  IC50: 3 nM

## Cn1nnc(C2CC3(c4ccccc4)NC2CCC3OCc2cc(C(F)(F)F)cc(C(F)(F)F)c2)n1 (stereo unspecified)
[1]
  Ki: 100 nM
Gerbil, jird [2]
  ED50: 0.3 mg/kg
Gerbil, jird [3]
  ED50: 0.6 mg/kg
Substance-P receptor
  IC50: 1 nM

## C[C@@H](OC1CCC2NC1(c1ccccc1)CC2S(=O)(=O)c1ccccc1)c1cc(C(F)(F)F)cc(C(F)(F)F)c1 (stereo partly specified)
Gerbil, jird [5]
  inhibition in vivo at 3 mg/kg: 39%
Substance-P receptor
  IC50: 0.6 nM

## C[C@@H](OC1CCC2NC1(c1ccccc1)CC2c1nnn(C)n1)c1cc(C(F)(F)F)cc(C(F)(F)F)c1 (stereo partly specified)
[1]
  Ki: 1800 nM
Gerbil, jird [2]
  ED50: 0.4 mg/kg
Gerbil, jird [3]
  ED50: 1.1 mg/kg
Substance-P receptor
  IC50: 0.5 nM

## C[C@H](OC1CCC2CCC1(c1ccccc1)N2)c1cc(C(F)(F)F)cc(C(F)(F)F)c1 (stereo partly specified)
Substance-P receptor
  IC50: 200 nM

Source: ChEMBL document CHEMBL1146106, “1-Phenyl-8-azabicyclo[3.2.1]octane ethers: a novel series of neurokinin (NK1) antagonists” (Bioorg Med Chem Lett, 2006)
